# Measured values: patent US20260055161A1, “PSCA CAR-T CELLS” (Regeneron Pharmaceuticals, Inc., priority 2018, published 2026)
# What was measured:
# peripheral lymphocytes = conditions: 1 patient with increased IL-7 and IL-15 levels after lymphodepletion
# Description: FIG. 8 provides a table showing patient demographics and clinical characteristics. *Cytoxan 1 g/m^2 by IV infusion on Day −3; † PSCA (copies per 10^6 copies hACTB) was measured at screening.
# [1] = system: serum cytokines and chemokines (IP-10, TNF-α, MCP-1, MIP-1α, MIP-1β); experiment: peripheral cytokine profiles over time; format: in vivo, human
# Description: Cohort 3 (1.25×10^6 cells/kg) was the initial starting cohort for cell dose escalation decisions in Part 1 when PSCA CAR-T cells are administered with rimiducid. Cohorts of 3 subjects were treated with escalating doses of PSCA CAR-T cells on Day 0 with a fixed, single dose of rimiducid (0.4 mg/kg) on Day 7. The doses of PSCA CAR-T cells are detailed in FIG. 8.
# cells = experiment: AP1903 amount needed in vitro for effective signaling of cells; format: cell-based
# [2] = healthy volunteers; cited from earlier work
structure (smiles),measurement,setting,value
O=P1(N(CCCl)CCCl)NCCCO1 (stereo not drawn) [cyclophosphamide],"peripheral lymphocyte count, of the starting level",peripheral lymphocytes,31%
"CC[C@H](C(=O)N1CCCC[C@H]1C(=O)O[C@H](CCc1ccc(OC)c(OC)c1)c1cccc(OCC(=O)NCCNC(=O)COc2cccc([C@@H](CCc3ccc(OC)c(OC)c3)OC(=O)[C@@H]3CCCCN3C(=O)[C@@H](CC)c3cc(OC)c(OC)c(OC)c3)c2)c1)c1cc(OC)c(OC)c(OC)c1 (relative stereo) [rimiducid, 2-Piperidinecarboxylic acid, 1-[(2S)-1-oxo-2-(3,4,5-trimethoxyphenyl)butyl]-, 1,2-ethanediylbis[imino(2-oxo-2,1-ethanediyl)oxy-3,1-phenylene[(1R)-3-(3,4-dimethoxyphenyl)propylidene]]ester, [2S-[1(R*),2R*[S*[S*[1(R*),2R*]]]]]-(9C1)]","serum cytokines (IP-10, TNF-α)",[1]; 8 patients that received rimiducid after CAR-T cells,"all had elevated cytokines (IP-10, TNF-α) correlated with cell expansion"
same,"chemokine levels (MCP-1, MIP-1α, MIP-1β)","[1]; many patients, after rim infusion",Increased chemokine levels
same,amount needed in vitro for effective signaling of cells,cells,10 to 100 nM
same,"amount needed for effective signaling, equivalent",cells; MW: 1412 Da,14 to 140 µg/L
same,safety,[2],safe
